Patent publication US4468469A, “Substituted phenylacetic acids and salts as TBP blocking agents in iodothyronine immunoassays” (Miles Laboratories, Inc., priority 1982, dated 1984)
Where “and” joins values, the source holds several entries; their conditions need not be identical. Identical values can stand only once. Like-named read-outs stand apart in the source and are kept apart here.

Assays:
[1] = test system: dihydrofolate reductase; assay: Effect on the activity of dihydrofolate reductase; assay type: biochemical; conditions: for Absorbance Change Over 10 Minutes: 560 nm, 37° C.
Method: Assay mixtures were prepared to contain various concentrations of fenclofenac and, in a 1 ml final volume at 37° C., 0.3 mM thiazoyl blue, […] dihydrofolate, 0.5 mM NADPH, and 0.012 Units/ml of dihydrofolate reductase. The absorbance of each reaction mixture at 560 nm was read over a 10 minute incubation period at 37° C.

[2] = test system: serum proteins (thyroxine binding protein, TBP); assay: Dissociation of thyroxine from human serum, first experiment (Sephadex LH-20 column, pH 6.5)
Method: Approximately 3 milliliters (ml) of human serum was allowed to equilibrate with radioactive iodine-labeled thyroxine (^125 I-thyroxine obtained from Amersham-Searle, Arlington Heights, Ill., USA) for about 8 hours.
Then 100 microliter (μl) aliquots of this serum were combined with 300 μl aliquots of 0.1 molar (M) sodium phosphate buffer, pH 6.5, containing various concentrations of fenclofenac (British Pat. No. 1,308,327; example 6). Then 180 μl aliquots of each of these mixtures were applied to 2 ml columns of Sephadex LH-20 (Pharmacia Fine Chemicals, Piscataway, N.J. USA) equilibrated with 0.1M sodium phosphate buffer, pH 6.5. The radioactivity on the columns was measured and the columns were washed with 5 ml of the buffer. The radioactivity of each column was measured again and the results (shown below in Table 1) used as estimates of thyroxine dissociated from serum proteins.

[3] = target: T1, apoglucose oxidase (Aspergillus niger, UniProt P13006); assay: Activation of apoglucose oxidase by FAD-thyroxine conjugate; assay type: biochemical; conditions: 5.5 min, pH 7; for activity at 160 µM: 0.16 mM fenclofenac; for activity at 310 µM: 0.31 mM fenclofenac; for activity at 630 µM: 0.63 mM fenclofenac; for activity at 1250 µM: 1.25 mM fenclofenac; for activity at 2500 µM: 2.5 mM fenclofenac; for activity at 5000 µM: 5.0 mM fenclofenac; for activity at 10000 µM: 10.0 mM fenclofenac
Method: In a second study, the effect of fenclofenac on the activation of apoglucose oxidase by an FAD-iodothyronine (T-4) conjugate was investigated. The activation of apoglucose oxidase was set up with different concentrations of fenclofenac and performed at 37° C. To two sets of assays containing 96 mM sodium phosphate, pH 7.0, 95 mM glucose, 1.0 mM sodium dichlorohydroxybenzene sulfonate (DHSA), 19 μg/ml peroxidase and various concentrations of sodium fenclofenac were added apoglucose oxidase, 4-aminoantipyrine, and anti(glucose oxidase) at final concentrations of 100 nM, 100 μM, 5 μl/ml respectively or 2.1 nM final concentration of an FAD-thyroxine conjugate. After preincubating the assay media for 5 min at 37° C. the FAD-thyroxine conjugate or the apoglucose oxidase reagent was added to the appropriate assay set. The absorbance at 520 nm was recorded after a 330 second incubation. The data are presented as a percentage of the absorbance recorded when no fenclofenac is present.

[4] = test system: serum proteins (thyroxine binding protein, TBP); assay: Dissociation of thyroxine from human serum, second experiment (Seralute Sephadex column, pH 7.0); conditions: for release and block the binding of protein-bound iodothyronine: summary of both experiments of Example I; for Percent Dissociated: pH 7.0, 5 min
Method: (§1) Radioactive iodine labeled thyroxine (^125 I-thyroxine obtained from Amersham-Searle, Arlington Heights, IL, USA) was equilibrated with 5 ml of normal human serum for 48 hours at 4° C. […] After 5 minutes of incubation at room temperature, a 165 μl aliquot was applied to a Sephadex® column from a Seralute® thyroxine assay kit (Miles Laboratories, Inc., Ames Division, Elkhart, IN, USA), which had been equilibrated with 0.1M sodium phosphate, pH 7.0. The total radioactivity applied to the columns was measured and the undissociated material was washed through the column with 3 ml of buffer. The columns were counted to determine the percentage of thyroxine dissociated from the serum proteins.

[5] = target: T1, apoglucose oxidase; assay: Activation of apoglucose oxidase by FAD-theophylline conjugate (fenclofenac); assay type: biochemical; conditions: 5 min, 37° C., read-out: Percent Apoglucose Oxidase Activity
Method: A series of apoenzyme reactivation measurements were set up with different concentrations of fenclofenac. The assays were performed at 37° C. and the final reagent concentrations in 0.1M phosphate buffer, pH 7.0, were 1.0 nanomolar (nM) FAD-labeled conjugate (an FAD-theophylline conjugate as described in U.S. Pat. No. 4,238,565), 50 nM apoglucose oxidase (U.S. Pat. No. 4,268,631), 2.5 μl/ml anti(glucose oxidase) antiserum, 2 mM sodium dichlorohydroxybenzene sulfonate (DHSA), 0.2 mM 4-aminoantipyrine, 0.1M glucose, 20 μg/ml peroxidase, and 0.1% (w/v) bovine serum albumin. The apoenzyme and anti(glucose oxidase) were preincubated and the reaction then started by simultaneously mixing in the other reagents. The reaction mixtures were incubated for 5 minutes and then absorbance at 520 nm read. The results shown in Table 4 relate fenclofenac concentration to the generation of active glucose oxidase.

[6] = Optical absorption spectra; assay type: physicochemical
[7] = test system: serum proteins (thyroxine binding protein, TBP); assay: Effect of pH on the dissociation of iodothyronine from serum proteins; design: species or system human; conditions: for Percent Dissociated: dissociating agent 2.0 mM
Method: as §1
Using the column procedure described in the second study in Example 1, the pH of the 0.1M sodium phosphate was varied and the concentration of the dissociating agent held constant at 2.0 mM. The columns were equilibrated with buffer containing the dissociating agent at the given pH and 165 μl of the serum diluted in buffer at the given pH (as described above) was applied to the column. The total counts were measured and then the columns were washed with buffer at the given pH. The counts remaining on the column represent the percentage of iodothyronine dissociated.

[8] = read-out: percentage of the absorbance at 520 nm without fenclofenac, Started with Apoenzyme Addition
[9] = read-out: percentage of the absorbance at 520 nm without fenclofenac, Started with Conjugate Addition

T1 sequence (P13006 17-605): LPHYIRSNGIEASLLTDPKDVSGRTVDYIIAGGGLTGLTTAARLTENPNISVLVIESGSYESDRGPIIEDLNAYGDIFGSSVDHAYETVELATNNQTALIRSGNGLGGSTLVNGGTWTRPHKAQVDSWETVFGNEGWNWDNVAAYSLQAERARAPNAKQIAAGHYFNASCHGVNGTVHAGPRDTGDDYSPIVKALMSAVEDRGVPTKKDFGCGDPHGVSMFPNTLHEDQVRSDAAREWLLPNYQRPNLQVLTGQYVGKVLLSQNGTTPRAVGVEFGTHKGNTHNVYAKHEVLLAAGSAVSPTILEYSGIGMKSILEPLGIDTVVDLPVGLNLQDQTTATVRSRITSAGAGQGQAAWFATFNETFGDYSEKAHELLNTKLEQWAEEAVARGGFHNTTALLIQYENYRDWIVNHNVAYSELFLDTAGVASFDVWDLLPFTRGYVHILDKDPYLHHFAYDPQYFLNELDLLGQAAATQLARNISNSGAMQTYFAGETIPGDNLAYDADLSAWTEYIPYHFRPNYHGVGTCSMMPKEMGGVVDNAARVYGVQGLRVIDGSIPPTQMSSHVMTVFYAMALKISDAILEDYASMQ

Which “Absorbance Change Over 10 Minutes” value ([1]; 0.1 mM fenclofenac) does the source give for O=C(O)Cc1ccccc1Oc1ccc(Cl)cc1Cl [Fenclofenac, 2-(2,4-dichlorophenoxy)phenylacetic acid] here?
The value was 0.359.

And the “Absorbance Change Over 10 Minutes” value ([1]; 0.2 mM fenclofenac)?
The value was 0.365.

And the “Absorbance Change Over 10 Minutes” value ([1]; 0.5 mM fenclofenac)?
Its value is 0.355.

And the “Absorbance Change Over 10 Minutes” value ([1]; 1.0 mM fenclofenac)?
The value was 0.332.

And the “Absorbance Change Over 10 Minutes” value ([1]; 2.5 mM fenclofenac)?
Its value is 0.273.

What about the “Absorbance Change Over 10 Minutes” value ([1]; 5.0 mM fenclofenac) of the same compound?
Its value is 0.118.

And the “inhibition of enzyme activity (dihydrofolate reductase)” value ([1]; concentrations below 1.0 mM)?
The value was “did not give substantial inhibition”.

What about the “Percent Thyroxine Dissociated” value ([2]; 0.25 mM fenclofenac) of the same compound?
Its value is 50%.

What about the “Percent Thyroxine Dissociated” value ([2]; 0.50 mM fenclofenac) of the same compound?
The value was 72%.

And the “Percent Thyroxine Dissociated” value ([2]; 1.0 mM fenclofenac)?
The value was 79%.

And the “Percent Thyroxine Dissociated” value ([2]; 2.0 mM fenclofenac)?
The value was 98%.

And the “Percent Thyroxine Dissociated” value ([2]; 5.0 mM fenclofenac)?
Its value is 100%.

And the activity at 160 µM [3, 8]?
The activity at 160 µM was 100%.

And the activity at 160 µM [3, 9]?
Its activity at 160 µM is 97%.

And the activity at 310 µM [3, 8]?
The activity at 310 µM was 98%.

What about the activity at 310 µM [3, 9] of the same compound?
Its activity at 310 µM is 92%.

And the activity at 630 µM [3, 8]?
Its activity at 630 µM is 97%.

And the activity at 630 µM [3, 9]?
Its activity at 630 µM is 94%.

What about the activity at 1250 µM [3, 8] of the same compound?
Its activity at 1250 µM is 93%.

And the activity at 1250 µM [3, 9]?
Its activity at 1250 µM is 95%.

What about the activity at 2500 µM [3, 8] of the same compound?
Its activity at 2500 µM is 90%.

What about the activity at 2500 µM [3, 9] of the same compound?
Its activity at 2500 µM is 85%.

And the activity at 5000 µM [3, 8]?
Its activity at 5000 µM is 78%.

And the activity at 5000 µM [3, 9]?
Its activity at 5000 µM is 74%.

And the activity at 10000 µM [3, 8]?
Its activity at 10000 µM is 53%.

What about the activity at 10000 µM [3, 9] of the same compound?
Its activity at 10000 µM is 54%.

And the inhibition at 2000 µM ([3]; about 2 mM fenclofenac, FAD-thyroxine conjugate, read-out: colorimetric response diminished)?
Its inhibition at 2000 µM is 8 to 10%.

What about the “release and block the binding of protein-bound iodothyronine” value ([4]; 0.25 mM in immunoassay reaction mixture) of the same compound?
Its value is 40-50%.

What about the “release and block the binding of protein-bound iodothyronine” value ([4]; 0.50 mM in immunoassay reaction mixture) of the same compound?
The value was 60-70%.

What about the “Percent Dissociated” value ([4]; dissociating agent 0.25 mM) of the same compound?
The value was 40%.

What about the “Percent Dissociated” value ([4]; dissociating agent 0.50 mM) of the same compound?
The value was 61%.

What about the “Percent Dissociated” value ([4]; dissociating agent 1.00 mM) of the same compound?
The value was 71%.

And the “Percent Dissociated” value ([4]; dissociating agent 2.00 mM)?
The value was 75%.

And the “Percent Dissociated” value ([4]; dissociating agent 4.00 mM)?
The value was 79%.

What about the “Percent Dissociated” value ([4]; dissociating agent 8.00 mM) of the same compound?
The value was 81%.

And the activity at 500 µM ([5]; pH 7, 0.5 mM fenclofenac)?
The activity at 500 µM was 81%.

And the activity at 1000 µM ([5]; pH 7, 1.0 mM fenclofenac)?
Its activity at 1000 µM is 66%.

What about the activity at 1500 µM ([5]; pH 7, 1.5 mM fenclofenac) of the same compound?
Its activity at 1500 µM is 61%.

And the activity at 2000 µM ([5]; pH 7, 2.0 mM fenclofenac)?
Its activity at 2000 µM is 64%.

What about the activity at 2500 µM ([5]; pH 7, 2.5 mM fenclofenac) of the same compound?
The activity at 2500 µM was 47%.

And the “optical absorption above 300 nm” value ([6]; 0.5 mM solution in 0.1M sodium phosphate buffer, pH 6.5)?
Its value is “no significant absorption above 300 nanometers”.

What about the “visible color of solution” value ([6]; 50 mM solution in dilute sodium hydroxide) of the same compound?
Its value is “no visible color”.

What about the λmax ([6]; in 0.1M sodium hydroxide) of the same compound?
The λmax was 275 nanometers and 269 nanometers.

And the λmin ([6]; in 0.1M sodium hydroxide)?
Its λmin is 257 nanometers.

What about the “ε max (NaOH), extinction coefficient” value ([6]; in 0.1M sodium hydroxide, at λmax) of the same compound?
The value was 2060 M⁻¹ cm⁻¹ and 2050 M⁻¹ cm⁻¹.

And the “ε min (NaOH), extinction coefficient” value ([6]; in 0.1M sodium hydroxide, at λmin)?
Its value is 1520 M⁻¹ cm⁻¹.

And the “pH dependence of the dissociation of iodothyronine from serum proteins” value ([7]; over the range pH 6.0-8.0, 2.0 mM)?
Its value is “independent of pH”.

And the “Percent Dissociated” value ([7]; pH 6.0)?
Its value is 84%.

And the “Percent Dissociated” value ([7]; pH 6.5)?
The value was 84%.

What about the “Percent Dissociated” value ([7]; pH 7.0) of the same compound?
The value was 86%.

And the “Percent Dissociated” value ([7]; pH 7.5)?
The value was 85%.

And the “Percent Dissociated” value ([7]; pH 8.0)?
Its value is 83%.
